Here are results for 37 compounds from patent US12486254B2, “Uracil derivatives for stimulating read-through of premature termination codons” (Southern Research Institute, priority 2022, dated 2025).

SMILES strings stand for the structures.

This experiment concerns W134X-CF#14 FRT. Put plainly: Read-through of a premature termination codon, W134X-CF#14 FRT data, with G418. The format is cell-based. As to conditions: in presence of G418. On the procedure: The compounds shown in Table 1 were evaluated for their ability to stimulate read-through of a premature termination codon, and their respective activities are shown in Tables 2 and 3 below.

By EC50 is commonly meant the midpoint of the concentration-response curve.

Turning to `CCN(CC)C(=O)C1CCCN1CC(=O)c1c(N)n(Cc2ccccc2)c(=O)n(CC)c1=O` (stereo not shown) [1.99], the EC50 is 28.3 µM.
For `CCn1c(=O)c(C(=O)CN2CCCC[C@@H]2C(=O)NCC(F)(F)F)c(N)n(Cc2ccccc2)c1=O` [1.159], the EC50 came to 4.91 µM.
The value for `CC(C)N(CC(N)=O)CC(=O)c1c(N)n(Cc2ccccc2)c(=O)n(C)c1=O` [1.21] was 43.2 µM.
In the case of `CCn1c(=O)c(C(=O)CN2CCC[C@@H]2C(N)=O)c(N)n(Cc2ccccc2)c1=O` [1.34], the EC50 is 53 µM.
For the compound `Cc1ccc(Cn2c(N)c(C(=O)CN3CCCCC3C(N)=O)c(=O)n(Cc3ccc(C)cc3)c2=O)cc1` (stereo not shown) [1.114], the EC50 was 18.1 µM.
The figure for `CCn1c(=O)c(C(=O)CN(CC(N)=O)C(C)(C)C)c(N)n(Cc2ccccc2)c1=O` [1.32] is 72.3 µM; for `CCn1c(=O)c(C(=O)CN2CCCCC2C(N)=O)c(N)n(Cc2cccc(C)c2)c1=O` (stereo not shown) [1.119] it is 13.3 µM; for `CCn1c(=O)c(C(=O)CN2CCCCC2C(=O)NCCc2ccccc2)c(N)n(Cc2ccccc2)c1=O` (stereo not shown) [1.136] it is 8.25 µM.
`CCn1c(=O)c(C(=O)CN2CCCCC2C(N)=O)c(N)n(CC2CCCCC2)c1=O` (stereo not shown) [1.84]: the EC50 was found to be 48.2 µM.
As for `CCn1c(=O)c(C(=O)CN2CCCCC2C(=O)NCc2ccccc2C)c(N)n(Cc2ccccc2)c1=O` (stereo not shown) [1.135], the EC50 is 13.5 µM.
The value for `CCn1c(=O)c(C(=O)CN2CCCC2C(=O)NCc2ccccc2)c(N)n(Cc2ccccc2)c1=O` (stereo not shown) [1.124] was 24.1 µM.
The figure for `NC(=O)C1CCCCN1CC(=O)c1c(N)n(Cc2cccs2)c(=O)n(Cc2cccs2)c1=O` (stereo not shown) [1.101] is 12.8 µM; for `CCn1c(=O)c(C(=O)CN2CCCC2C(=O)N2CCCCC2)c(N)n(Cc2ccccc2)c1=O` (stereo not shown) [1.122] it is 30.4 µM; for `CCN(CC)C(=O)C1CCCCN1CC(=O)c1c(N)n(Cc2ccccc2)c(=O)n(CC)c1=O` (stereo not shown) [1.81] it is 3.92 µM.
The value for `CCn1c(=O)c(C(=O)CNc2cccc(C(N)=O)c2)c(N)n(Cc2ccc(F)cc2)c1=O` [1.208] was 11.4 µM; that for `CCn1c(=O)c(C(=O)CN(C)CC(=O)c2c(N)n(Cc3ccccc3)c(=O)n(CC)c2=O)c(N)n(Cc2ccccc2)c1=O` [1.38] was 11.9 µM; that for `CCn1c(=O)c(C(=O)CN2CCCCC2C(=O)N2CCc3ccccc3C2)c(N)n(Cc2ccccc2)c1=O` (stereo not shown) [1.141] was 12.9 µM.
Consider `CCn1c(=O)c(C(=O)CN(C)CC(N)=O)c(N)n(Cc2ccccc2)c1=O` [1.41], for which the EC50 amounted to 157 µM.
As to `CCn1c(=O)c(C(=O)CN(CC(=O)OC)C(C)C)c(N)n(Cc2ccc(F)cc2)c1=O` [1.213], the EC50 came to 10.2 µM.
The value for `CCn1c(=O)c(C(=O)CNC2CCCCC2)c(N)n(Cc2ccccc2)c1=O` [1.13] was 174 µM; that for `CCN(CC(=O)c1c(N)n(Cc2ccccc2)c(=O)n(CC)c1=O)CC(=O)c1c(N)n(Cc2ccccc2)c(=O)n(CC)c1=O` [1.37] was 12.9 µM; that for `CCn1c(=O)c(C(=O)CN2CCCC[C@@H]2C(=O)NCc2cccc(F)c2)c(N)n(Cc2ccccc2)c1=O` [1.144] was 9.35 µM.
The value for `NC(=O)C1CCCCN1CC(=O)c1c(N)n(CC2CCC2)c(=O)n(Cc2ccc(F)cc2)c1=O` (stereo not shown) [1.160] was 28.4 µM; that for `CC1Cc2ccccc2N1CC(=O)c1c(N)n(Cc2ccccc2)c(=O)n(C)c1=O` (stereo not shown) [1.61] was 32.3 µM; that for `Cc1ccccc1Cn1c(N)c(C(=O)CN2CCCCC2C(N)=O)c(=O)n(Cc2ccccc2C)c1=O` (stereo not shown) [1.108] was 25 µM.
Take `CN(C)C(=O)C1CCCCN1CC(=O)c1c(N)n(Cc2cccs2)c(=O)n(Cc2cccs2)c1=O` (stereo not shown) [1.102]: the EC50 stood at 6.2 µM.
With `CCn1c(=O)c(C(=O)CN2CCCC2c2cccn2C)c(N)n(Cc2ccccc2)c1=O` (stereo not shown) [1.63], the EC50 came out at 79.9 µM.
The figure for `CCn1c(=O)c(C(=O)CN(C(C)C)C(C)C(N)=O)c(N)n(Cc2ccccc2)c1=O` (stereo not shown) [1.71] is 70.4 µM; for `CCn1c(=O)c(C(=O)CN2CCCC[C@@H]2C(=O)N2CCc3ccccc3C2)c(N)n(Cc2ccccc2)c1=O` [1.143] it is 6.48 µM; for `CCNC(=O)C1CCCCN1CC(=O)c1c(N)n(Cc2ccccc2)c(=O)n(CC)c1=O` (stereo not shown) [1.80] it is 3.89 µM.
On to `Cn1c(=O)c(C(=O)CN2CCN(c3ccccc3F)CC2)c(N)n(Cc2ccccc2)c1=O` [1.43], for which the EC50 is 49.3 µM.
The value for `CCn1c(=O)c(C(=O)CN2CCCCC2C(N)=O)c(N)n(Cc2ccc(F)cc2Cl)c1=O` (stereo not shown) [1.173] was 42.1 µM; that for `CCn1c(=O)c(C(=O)CN2CCCCC2C(N)=O)c(N)n(Cc2ccc(F)c(F)c2)c1=O` (stereo not shown) [1.147] was 52.5 µM; that for `CCn1c(=O)c(C(=O)CN(CC(N)=O)C(C)C)c(N)n(Cc2cccs2)c1=O` [1.111] was 5.19 µM.
The figure for `CCn1c(=O)c(C(=O)CN2CCCCC2)c(N)n(Cc2ccc(F)cc2)c1=O` [1.193] is 47.2 µM.
Take `CCn1c(=O)c(C(=O)CN2CCCCC2C(=O)NC(C)(C)C)c(N)n(Cc2ccccc2)c1=O` (stereo not shown) [1.79]: the EC50 worked out at 49.3 µM.
The value for `COc1ccccc1Cn1c(N)c(C(=O)CN2CCCCC2C(N)=O)c(=O)n(Cc2ccccc2OC)c1=O` (stereo not shown) [1.110] was 25 µM.
